Source: patent US11034672B1, “Tyrosine kinase inhibitor compositions, methods of making and methods of use” (Black Diamond Therapeutics, Inc., priority 2018, dated 2021)

Experiments:
Type in all cases: cell-based
[1] = target: T1, EGFR WT (Homo sapiens, UniProt P00533); experiment: Activity for inhibiting EGFR (Table A), EGFR WT; settings: read-out: EGFR WT, potency code (IC50)
[2] = target: T2, EGFR V3 (Homo sapiens, UniProt P00533, DELINS30-297G); experiment: Activity for inhibiting EGFR (Table A), EGFR V3 (EGFR-Viii); settings: read-out: EGFR V3, potency code (IC50)
T2 construct: expressed in transfected cells; host or cells: BaF3 (murine pro-B), retroviral pMXs-IRES-Blasticidin

[3] = target: T3, EGFR NPH (Homo sapiens, UniProt P00533, DUP771-773); experiment: Activity for inhibiting EGFR (Table A), EGFR NPH; settings: read-out: EGFR NPH, potency code (IC50)
T3 construct: expressed in transfected cells; host or cells: BaF3 (murine pro-B), retroviral pMXs-IRES-Blasticidin

[4] = target: T4, EGFR SVD (Homo sapiens, UniProt P00533, DUP768-770); experiment: Activity for inhibiting EGFR (Table A), EGFR SVD; settings: read-out: EGFR SVD, potency code (IC50)
T4 construct: expressed in transfected cells; host or cells: BaF3 (murine pro-B), retroviral pMXs-IRES-Blasticidin

[5] = target: T5, HER2 S310F (Homo sapiens, UniProt P04626, S310F); experiment: Activity for inhibiting HER2 (Table B), HER2 S310F; settings: read-out: HER2 S310F, potency code (IC50)
T5 construct: expressed in transfected cells; host or cells: BaF3 (murine pro-B)
Experimental: (§1) EC50 values were determined with the same application.

[6] = target: T6, HER2 YVMA (Homo sapiens, UniProt P04626, INS775YVMA); experiment: Activity for inhibiting HER2 (Table B), HER2 YVMA; settings: read-out: HER2 YVMA, potency code (IC50)
T6 construct: expressed in transfected cells; host or cells: BaF3 (murine pro-B)
Experimental: as §1

[7] = target: T1, EGFR WT; experiment: BaF3 cell proliferation assay, EGFR WT (Table A); settings: potency code, 3 days, CellTiterGlo, read-out: EGFR WT (Activity for Inhibiting EGFR)
How it was run: (§2)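 Readout: EC50 for BaF3 proliferation. Cells stably expressing the receptor variant were generated by retrovirus and IL-3 independence.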

[8] = target: T2, EGFR V3; experiment: BaF3 cell proliferation assay, EGFR V3 (Table A); settings: potency code, 3 days, CellTiterGlo, read-out: EGFR V3 (Activity for Inhibiting EGFR)
How it was run: as §2

[9] = target: T3, EGFR NPH; experiment: BaF3 cell proliferation assay, EGFR NPH (Table A); settings: potency code, 3 days, CellTiterGlo, read-out: EGFR NPH (Activity for Inhibiting EGFR)
Experimental: (§3) Retroviral Production: EGFR mutants were subcloned into pMXs-IRES-Blasticidin (RTV-016, Cell Biolabs, San Diego, Calif.). Retroviral expression vector retrovirus was produced by transient transfection of HEK 293T cells with the retroviral EGFR mutant expression vector pMXs-IRES-Blasticidin (RTV-016, Cell Biolabs), pCMV-Gag-Pol vector and pCMV-VSV-G-Envelope vector. Briefly, HEK 293T/17 cells were plated in 100 mm collagen coated plate (354450, Corning Life Sciences, Tewksbury, Mass.) (4×10^5 per plate) and incubated overnight. The next day, retroviral plasmids (3 μg of EGFR mutant, 1.0 μg of pCMV-Gag-Pol and 0.5 μg pCMV-VSV-G) were mixed in 500 μl of Optimem (31985, Life Technologies). The mixture was incubated at room temperature for 5 min and then added to Optimem containing transfection reagent Lipofectamine (11668, Invitrogen) and incubated for 20 minutes. Mixture was then added dropwise to HEK 293T cells. The next day the medium was replaced with fresh culture medium and retrovirus was harvested @ 24 and 48 hrs.
(§4) Generation of EGFR mutant stable cell lines: BaF3 cells (1.5E5 cells) were infected with 1 ml of viral supernatant supplemented with 8 μg/ml polybrene by centrifuging for 30 min at 1000 rpm. Cells were placed in a 37° C. incubator overnight. Cells were then spun for 5 minutes to pellet the cells. Supernatant was removed and cells re-infected a fresh 1 ml of viral supernatant supplemented with 8 μg/ml polybrene by centrifuging for 30 min at 1000 rpm. Cells were placed in 37° C. incubator overnight. […] After 48 hours cells were selected for retroviral infection in 10 μg/ml Blasticidin for one week. Blasticidin resistant populations were washed twice in phosphate buffered saline before plating in media lacking IL-3 to select for IL-3 independent growth.
as §1

[10] = target: T4, EGFR SVD; experiment: BaF3 cell proliferation assay, EGFR SVD (Table A); settings: potency code, 3 days, CellTiterGlo, read-out: EGFR SVD (Activity for Inhibiting EGFR)
Experimental: as §3, §4, §1

[11] = target: T5, HER2 S310F; experiment: BaF3 cell proliferation assay, HER2 S310F (Table B); settings: potency code, 3 days, CellTiterGlo, read-out: HER2 S310F (Activity for Inhibiting HER2)
[12] = target: T6, HER2 YVMA; experiment: BaF3 cell proliferation assay, HER2 YVMA (Table B); settings: potency code, 3 days, CellTiterGlo, read-out: HER2 YVMA (Activity for Inhibiting HER2)

T6 sequence (P04626 with tags, fused parts or gaps INS775YVMA): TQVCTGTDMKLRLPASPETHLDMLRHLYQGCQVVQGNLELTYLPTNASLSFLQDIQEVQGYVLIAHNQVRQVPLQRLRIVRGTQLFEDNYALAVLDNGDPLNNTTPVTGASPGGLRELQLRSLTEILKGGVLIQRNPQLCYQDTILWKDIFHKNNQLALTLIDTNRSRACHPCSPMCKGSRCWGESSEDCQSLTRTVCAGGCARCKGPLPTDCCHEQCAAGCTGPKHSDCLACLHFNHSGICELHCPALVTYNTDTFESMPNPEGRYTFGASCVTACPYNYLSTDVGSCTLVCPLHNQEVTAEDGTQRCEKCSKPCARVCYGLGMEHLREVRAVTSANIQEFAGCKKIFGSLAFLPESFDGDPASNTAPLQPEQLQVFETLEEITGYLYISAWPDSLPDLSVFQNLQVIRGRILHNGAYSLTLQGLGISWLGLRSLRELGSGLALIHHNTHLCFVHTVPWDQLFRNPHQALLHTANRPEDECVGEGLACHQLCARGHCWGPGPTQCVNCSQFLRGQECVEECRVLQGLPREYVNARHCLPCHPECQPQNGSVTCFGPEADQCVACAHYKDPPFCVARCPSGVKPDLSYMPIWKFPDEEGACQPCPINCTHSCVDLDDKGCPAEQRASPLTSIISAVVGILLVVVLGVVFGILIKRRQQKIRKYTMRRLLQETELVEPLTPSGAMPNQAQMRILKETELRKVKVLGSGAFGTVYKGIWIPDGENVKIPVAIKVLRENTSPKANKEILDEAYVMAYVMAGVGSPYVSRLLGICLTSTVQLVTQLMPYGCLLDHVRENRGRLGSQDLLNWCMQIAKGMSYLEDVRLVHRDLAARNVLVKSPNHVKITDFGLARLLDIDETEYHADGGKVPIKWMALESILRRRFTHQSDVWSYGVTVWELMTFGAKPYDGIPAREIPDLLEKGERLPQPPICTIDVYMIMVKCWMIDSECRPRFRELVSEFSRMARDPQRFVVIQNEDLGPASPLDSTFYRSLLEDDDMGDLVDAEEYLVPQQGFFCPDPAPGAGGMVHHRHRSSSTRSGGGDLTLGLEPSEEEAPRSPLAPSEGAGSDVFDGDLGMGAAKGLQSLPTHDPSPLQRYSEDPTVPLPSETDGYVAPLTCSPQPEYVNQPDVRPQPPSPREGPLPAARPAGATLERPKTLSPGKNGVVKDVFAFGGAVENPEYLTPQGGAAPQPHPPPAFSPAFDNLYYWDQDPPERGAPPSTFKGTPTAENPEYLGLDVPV
T4 sequence (P00533 with tags, fused parts or gaps DUP768-770): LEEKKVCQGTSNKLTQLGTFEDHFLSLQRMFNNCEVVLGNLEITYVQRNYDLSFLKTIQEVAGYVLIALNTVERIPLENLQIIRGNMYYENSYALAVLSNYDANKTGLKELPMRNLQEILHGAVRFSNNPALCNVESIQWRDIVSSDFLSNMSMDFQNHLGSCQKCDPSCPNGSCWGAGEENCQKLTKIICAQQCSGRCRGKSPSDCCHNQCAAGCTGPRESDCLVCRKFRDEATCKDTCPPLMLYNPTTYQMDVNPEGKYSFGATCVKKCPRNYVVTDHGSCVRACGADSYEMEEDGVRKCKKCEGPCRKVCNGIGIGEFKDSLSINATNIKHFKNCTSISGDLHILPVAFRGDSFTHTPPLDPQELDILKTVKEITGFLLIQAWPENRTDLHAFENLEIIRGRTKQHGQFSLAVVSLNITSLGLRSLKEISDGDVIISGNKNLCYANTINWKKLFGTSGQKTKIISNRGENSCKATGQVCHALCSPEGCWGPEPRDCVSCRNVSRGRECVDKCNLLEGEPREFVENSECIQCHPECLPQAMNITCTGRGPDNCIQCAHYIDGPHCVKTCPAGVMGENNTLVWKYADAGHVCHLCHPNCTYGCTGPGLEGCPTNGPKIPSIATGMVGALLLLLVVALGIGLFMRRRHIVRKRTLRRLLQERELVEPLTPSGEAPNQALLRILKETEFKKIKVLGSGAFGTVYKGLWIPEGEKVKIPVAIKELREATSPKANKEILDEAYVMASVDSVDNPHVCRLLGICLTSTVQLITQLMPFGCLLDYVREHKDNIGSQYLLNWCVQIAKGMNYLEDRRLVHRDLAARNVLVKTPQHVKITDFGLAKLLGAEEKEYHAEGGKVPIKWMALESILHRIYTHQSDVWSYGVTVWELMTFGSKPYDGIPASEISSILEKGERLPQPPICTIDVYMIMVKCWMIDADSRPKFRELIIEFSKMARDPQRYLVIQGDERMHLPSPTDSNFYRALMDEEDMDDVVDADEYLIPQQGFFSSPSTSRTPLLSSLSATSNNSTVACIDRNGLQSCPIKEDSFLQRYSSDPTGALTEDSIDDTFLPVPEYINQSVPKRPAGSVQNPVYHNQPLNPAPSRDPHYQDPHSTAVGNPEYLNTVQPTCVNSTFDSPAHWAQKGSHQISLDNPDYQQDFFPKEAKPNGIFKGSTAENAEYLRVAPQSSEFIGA
T3 sequence (P00533 with tags, fused parts or gaps DUP771-773): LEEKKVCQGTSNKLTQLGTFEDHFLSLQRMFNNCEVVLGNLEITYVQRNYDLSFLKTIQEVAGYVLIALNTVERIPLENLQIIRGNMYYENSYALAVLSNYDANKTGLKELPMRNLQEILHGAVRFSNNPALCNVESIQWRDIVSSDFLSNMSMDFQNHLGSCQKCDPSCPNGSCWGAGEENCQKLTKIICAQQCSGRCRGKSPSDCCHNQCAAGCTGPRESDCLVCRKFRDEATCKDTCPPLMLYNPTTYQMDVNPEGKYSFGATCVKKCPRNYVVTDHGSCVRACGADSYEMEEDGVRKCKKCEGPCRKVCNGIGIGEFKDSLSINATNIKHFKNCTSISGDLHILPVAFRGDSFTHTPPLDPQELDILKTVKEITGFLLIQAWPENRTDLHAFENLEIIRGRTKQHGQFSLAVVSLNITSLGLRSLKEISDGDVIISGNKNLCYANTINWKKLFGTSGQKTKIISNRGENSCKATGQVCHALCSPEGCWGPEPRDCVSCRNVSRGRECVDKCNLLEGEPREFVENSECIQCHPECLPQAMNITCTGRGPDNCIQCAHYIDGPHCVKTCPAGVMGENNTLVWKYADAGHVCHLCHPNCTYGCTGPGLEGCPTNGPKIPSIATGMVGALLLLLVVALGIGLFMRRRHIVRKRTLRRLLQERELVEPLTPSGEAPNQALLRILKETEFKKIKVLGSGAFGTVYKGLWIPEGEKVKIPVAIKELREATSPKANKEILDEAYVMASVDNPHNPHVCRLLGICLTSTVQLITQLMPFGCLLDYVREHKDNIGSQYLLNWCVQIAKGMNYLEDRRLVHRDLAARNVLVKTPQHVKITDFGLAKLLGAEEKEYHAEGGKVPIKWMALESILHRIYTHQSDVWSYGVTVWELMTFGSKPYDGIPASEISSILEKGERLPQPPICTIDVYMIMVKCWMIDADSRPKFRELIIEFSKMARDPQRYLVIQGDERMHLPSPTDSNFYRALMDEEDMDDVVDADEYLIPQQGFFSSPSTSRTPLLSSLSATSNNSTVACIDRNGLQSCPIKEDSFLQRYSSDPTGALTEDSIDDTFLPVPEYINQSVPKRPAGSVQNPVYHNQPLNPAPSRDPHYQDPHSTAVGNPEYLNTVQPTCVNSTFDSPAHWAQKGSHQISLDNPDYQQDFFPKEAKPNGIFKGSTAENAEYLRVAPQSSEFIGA
T2 sequence (P00533 with tags, fused parts or gaps DELINS30-297G): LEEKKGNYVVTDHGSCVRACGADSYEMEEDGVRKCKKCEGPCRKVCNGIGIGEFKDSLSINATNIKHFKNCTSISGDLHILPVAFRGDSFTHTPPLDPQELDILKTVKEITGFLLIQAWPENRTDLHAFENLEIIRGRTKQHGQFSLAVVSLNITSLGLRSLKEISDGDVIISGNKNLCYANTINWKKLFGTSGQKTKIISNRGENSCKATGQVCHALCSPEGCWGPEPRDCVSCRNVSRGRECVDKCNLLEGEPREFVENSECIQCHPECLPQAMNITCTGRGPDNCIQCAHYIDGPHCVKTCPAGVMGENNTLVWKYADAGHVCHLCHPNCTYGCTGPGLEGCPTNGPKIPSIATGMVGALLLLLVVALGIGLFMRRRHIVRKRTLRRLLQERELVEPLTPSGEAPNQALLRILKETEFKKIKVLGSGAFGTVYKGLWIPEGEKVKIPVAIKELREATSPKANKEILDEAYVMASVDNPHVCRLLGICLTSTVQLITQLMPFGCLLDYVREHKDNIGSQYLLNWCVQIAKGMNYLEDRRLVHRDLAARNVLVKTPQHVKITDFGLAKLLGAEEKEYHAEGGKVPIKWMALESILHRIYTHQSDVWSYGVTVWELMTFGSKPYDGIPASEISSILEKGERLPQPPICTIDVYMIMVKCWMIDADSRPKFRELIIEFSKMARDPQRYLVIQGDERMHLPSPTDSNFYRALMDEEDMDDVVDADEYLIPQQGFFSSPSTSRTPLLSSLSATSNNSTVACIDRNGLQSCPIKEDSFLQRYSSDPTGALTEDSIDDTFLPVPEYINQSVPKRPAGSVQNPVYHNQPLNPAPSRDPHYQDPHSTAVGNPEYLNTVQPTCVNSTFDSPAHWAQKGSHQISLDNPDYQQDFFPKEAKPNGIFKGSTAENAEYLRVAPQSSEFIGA

Row | SMILES | IC50 [1] | IC50 [2] | IC50 [3] | IC50 [4] | IC50 [5] | IC50 [6] | IC50 [7] | IC50 [8] | IC50 [9] | IC50 [10] | IC50 [11] | IC50 [12]
1 | CC#CC(=O)Nc1cc2c(Nc3ccc(OCc4ccccn4)c(Cl)c3)ncnc2cc1OCCN1CCN(C)CC1 [compound 70] | 50 to 100 nM | 10 to 20 nM | 50 to 100 nM | 30 to 50 nM | 5 to 10 nM | 5 to 10 nM | 50 to 100 nM | 10 to 20 nM | 50 to 100 nM | 30 to 50 nM | 5 to 10 nM | 5 to 10 nM
2 | C=CC(=O)Nc1cc2c(Nc3ccc(OCc4ccccn4)c(Cl)c3)ncnc2cc1C#CC(C)(C)N1CCCC1 [compound 84, N-(4-((3-chloro-4-(pyridin-2-ylmethoxy)phenyl)amino)-7-(3-methyl-3-(pyrrolidin-1-yl)but-1-yn-1-yl)quinazolin-6-yl)acrylamide] | 500 to 1000 nM | 20 to 30 nM | 50 to 100 nM | 50 to 100 nM | 5 to 10 nM | 30 to 50 nM | 500 to 1000 nM | 20 to 30 nM | 50 to 100 nM | 50 to 100 nM | 5 to 10 nM | 30 to 50 nM
3 | C=CC(=O)Nc1cc2c(Nc3ccc(OCc4ccccn4)c(Cl)c3)ncnc2cc1C#C[C@H]1CCN(C)C1 [compound 85, N-(4-((3-chloro-4-(pyridin-2-ylmethoxy)phenyl)amino)-7-((1-methylpyrrolidin-3-yl)ethynyl)quinazolin-6-yl)acrylamide] | 200 to 300 nM | 20 to 30 nM | 20 to 30 nM | 20 to 30 nM | 5 to 10 nM | 30 to 50 nM | 200 to 300 nM | 20 to 30 nM | 20 to 30 nM | 20 to 30 nM | 5 to 10 nM | 30 to 50 nM
4 | C=CC(=O)Nc1cc2c(Nc3ccc(OCc4ccccn4)c(Cl)c3)ncnc2cc1OCCC1(N(C)C)CC1 [compound 102, N-(4-((3-chloro-4-(pyridin-2-ylmethoxy)phenyl)amino)-7-(2-(1-(dimethylamino)cyclopropyl)ethoxy)quinazolin-6-yl)acrylamide] | 500 to 1000 nM | 30 to 50 nM | 50 to 100 nM | 30 to 50 nM | 20 to 30 nM | 50 to 100 nM | 500 to 1000 nM | 30 to 50 nM | 50 to 100 nM | 30 to 50 nM | 20 to 30 nM | 50 to 100 nM
